Source: patent US20260144788A1, “COMPOUND FOR SHP2 PROTEIN DEGRADATION AND MEDICAL USES THEREOF” (UBIX THERAPEUTICS, INC., priority 2022, published 2026)

Biological target: T1, SHP2 protein (Homo sapiens, UniProt Q06124)
T1 sequence (Q06124 1-593): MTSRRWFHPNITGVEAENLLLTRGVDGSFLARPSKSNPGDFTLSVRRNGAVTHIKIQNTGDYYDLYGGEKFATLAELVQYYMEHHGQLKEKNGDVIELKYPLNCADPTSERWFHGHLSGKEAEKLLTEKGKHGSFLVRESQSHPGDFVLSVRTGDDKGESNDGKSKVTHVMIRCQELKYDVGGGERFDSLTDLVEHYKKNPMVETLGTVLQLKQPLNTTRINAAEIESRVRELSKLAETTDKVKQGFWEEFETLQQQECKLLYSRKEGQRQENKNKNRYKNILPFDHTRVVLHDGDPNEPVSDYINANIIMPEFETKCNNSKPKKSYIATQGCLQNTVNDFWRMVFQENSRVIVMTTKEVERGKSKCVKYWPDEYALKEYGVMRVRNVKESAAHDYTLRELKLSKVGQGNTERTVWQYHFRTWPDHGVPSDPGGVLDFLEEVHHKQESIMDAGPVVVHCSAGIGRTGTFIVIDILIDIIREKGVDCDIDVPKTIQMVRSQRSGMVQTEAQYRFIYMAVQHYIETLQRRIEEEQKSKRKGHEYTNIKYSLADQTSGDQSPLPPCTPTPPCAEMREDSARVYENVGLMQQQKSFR
Assay: Measurement of SHP2 protein degradation in NCI-H358 cells (western blotting)
Assay type: cell-based
Parameters: endogenous in cells; host or cells: NCI-H358
Conditions: harvested after 24 hours
Procedure: H358 cells were treated with the synthesized Example compounds, and the amount of SHP2 protein present in the cells was measured using western blotting detection. The protocol for the experiment using H358 cells is as follows.
[Culture]H358 cells were resuspended in RPMI1640 with 25 mM HEPES (Hyclone, SH30255.01), 10% FBS (Hyclone, SV30207.02), 1% Penicillin-streptomycin (Welgene, LS 202-02) media, seeded at 3×10^5/mL in 12-well plates (1 mL each), and cultured for 24 hours.
[Compound treatment] Before compound treatment, the media was changed to 1 mL media, and then the 12-well plate was treated as follows. The 10 mM stock dissolved in DMSO was serially diluted 1/100 or 1/10 with the media, and the compound was treated to the cells at a final concentration of 0.001, 0.01, and 0.1 μM, and harvested after 24 hours. For the negative control group, DMSO diluted 1/1000 in the media was added (1 μL DMSO+999 μL media).
[Harvest]24 hours after compound treatment, each well was scraped with a cell lifter (SPL, 90040), pipetted with a 1 mL pipette, collected in a 1.5 mL microtube, and centrifuged (500 g, 5 min, 4° C.). The supernatant was removed, washed with PBS, and centrifuged again (500 g, 5 min, 4° C.). Afterwards, the supernatant was removed to prepare a pellet.
[Cell lysis and sample preparation] Lysis buffer was prepared as follows. RIPA buffer (Biosesang, RC2038-050-00)+0.5 mM PMSF (SIGMA, P7626)+1× Protease/Phosphatase Inhibitor (Cell signaling, 5872S) were added at 30 μL per tube, vortexed, and incubated on ice for 30 minutes. Afterwards, sonication was performed (10 sec pulse, 30 sec rest, 5 cycles, 70% amplification) and centrifugation was performed (15,000 g, 15 min, 4° C.), and only the supernatant was transferred to a microtube. A 96-well plate was diluted to 1/4 with 7.5 μL of RIPA buffer and 2.5 μL of sample, and 200 μL each was added after mixing A and B of the BCA Protein Assay Kit (iNtRON, 21071) in a ratio of 50:1. The plate was incubated at 37° C. for 30 minutes and left at room temperature for 10 minutes. After shaking for 10 seconds with a SYNERGY H1 microplate reader from BioTek, the absorbance was measured at 562 nm. The protein was quantified using the measured value to make a sample, which was then incubated at 70° C. for 10 minutes. The sample buffer used here was a mixture of NuPAGE or Bolt 4× sample buffer (Invitrogen) and each 10× sample reducing agent depending on the gel to be used, and RIPA buffer was used for protein dilution.
[Western blotting detection] Equal amounts of samples were loaded onto NuPAGE or Bolt Bis-tris 4-12% gradient gel and run (200 V, 35 min). This was transferred to […] NC membrane using Trans-blot Turbo (BIO-RAD) (1.3 A constant, 25 V limit, 15 min), and blocked with 5% skim milk/0.2% TBST for 45 min at room temperature. Anti-SHPTP2 Mouse (1:1,000 in 5% skim milk/0.2% TBST, size: 70 kDa, Santa cruz sc-7384) and Anti-GAPDH Rabbit (1:2,000 in 5% skim milk or 5% BSA/0.2% TBST, size: 37 kDa, CST #2118) were added and incubated overnight at 4° C. After washing three times with 0.2% TBST washing buffer for 5 minutes each, secondary antibodies Anti-Mouse IgG (1:5,000 in 5% skim milk/0.2% TBST, CST) and IRDye® 680RD Goat anti-Rabbit IgG Secondary Antibody (1:10,000 in 5% skim milk/0.2% TBST, LI-COR 926-68071) were added, and incubated on a rocker at room temperature for 45 minutes. The resultants were washed five times with 0.2% TBST washing buffer for 5 minutes each, and detected using LI-COR's Odyssey. GAPDH was detected with a 700 nm channel, and SHPTP2 was detected using SuperSignal West Pico PLUS Chemiluminescent Substrate.

SHP2% degradation (0.01 μM) [%]	SHP2% degradation (0.1 μM) [%]	SMILES
95.7	97.1	Cc1ncsc1-c1ccc(CNC(=O)[C@@H]2C[C@@H](O)CN2C(=O)[C@@H](NC(=O)C2(F)CC2)C(C)(C)C)c(O[C@H]2CC[C@H](C(=O)N3CC(Nc4nccc(Sc5cnc(N6CCC7(CC6)CO[C@@H](C)[C@H]7N)cn5)c4Cl)C3)CC2)c1 [Example 22, (2S,4R)—N-(2-(((1R,4S)-4-(3-((4-((5-((3S,4S)-4-amino-3-methyl-2-oxa-8-azaspiro[4.5]decan-8-yl)pyrazin-2-yl)thio)-3-chloropyridin-2-yl)amino)azetidine-1-carbonyl)cyclohexyl)oxy)-4-(4-methylthiazol-5-yl)benzyl)-1-((S)-2-(1-fluorocyclopropane-1-carboxamido)-3,3-dimethylbutanoyl)-4-hydroxypyrrolidine-2-carboxamide]
48.3	88.1	Cc1cc(C(C(=O)N2C[C@H](O)C[C@H]2C(=O)NCc2ccc(-c3scnc3C)cc2O[C@H]2CC[C@H](C(=O)N3CC(Nc4cccc(Sc5cnc(N6CCC(C)(CN)CC6)cn5)c4Cl)C3)CC2)C(C)C)on1 (stereo partly drawn) [Example 114, (2S,4R)—N-(2-(((1R,4S)-4-(3-((3-((5-(4-(aminomethyl)-4-methylpiperidin-1-yl)pyrazin-2-yl)thio)-2-chlorophenyl)amino)azetidine-1-carbonyl)cyclohexyl)oxy)-4-(4-methylthiazol-5-yl)benzyl)-4-hydroxy-1-(3-methyl-2-(3-methylisoxazol-5-yl)butanoyl)pyrrolidine-2-carboxamide]
98.3	99.9	CC(=O)N[C@H](C(=O)N1C[C@H](O)C[C@H]1C(=O)NCc1ccc(-c2scnc2C)cc1OC1CCN(C(=O)C2CCN(c3cccc(Sc4cnc(N5CCC6(CC5)CO[C@@H](C)[C@H]6N)c(CO)n4)c3Cl)CC2)CC1)C(C)(C)C [Example 85, (2S,4R)-1-((S)-2-acetamido-3,3-dimethylbutanoyl)-N-(2-((1-(1-(3-((5-((3S,4S)-4-amino-3-methyl-2-oxa-8-azaspiro[4.5]decan-8-yl)-6-(hydroxymethyl)pyrazin-2-yl)thio)-2-chlorophenyl)piperidine-4-carbonyl)piperidin-4-yl)oxy)-4-(4-methylthiazol-5-yl)benzyl)-4-hydroxypyrrolidine-2-carboxamide]
54.4	98.5	CC(=O)N[C@H](C(=O)N1C[C@H](O)C[C@H]1C(=O)NCc1ccc(-c2scnc2C)cc1O[C@H]1CC[C@H](C(=O)N2CC(N3CCc4c(Sc5cnc(N6CCC7(CC6)CO[C@@H](C)[C@H]7N)cn5)cccc43)C2)CC1)C(C)(C)C [Example 32, (2S,4R)-1-((S)-2-acetamido-3,3-dimethylbutanoyl)-N-(2-(((1R,4S)-4-(3-(4-((5-((3S,4S)-4-amino-3-methyl-2-oxa-8-azaspiro[4.5]decan-8-yl)pyrazin-2-yl)thio)indolin-1-yl)azetidine-1-carbonyl)cyclohexyl)oxy)-4-(4-methylthiazol-5-yl)benzyl)-4-hydroxypyrrolidine-2-carboxamide]
−4.8	91.5	Cc1cnn(C(C(=O)N2C[C@H](O)C[C@H]2C(=O)NCc2ccc(-c3scnc3C)cc2OC2CCN(C(=O)C3CCN(c4nccc(Sc5cnc(N6CCC(C)(CN)CC6)cn5)c4Cl)CC3)CC2)C(C)C)c1 (stereo partly drawn) [Example 99, (2S,4R)—N-(2-((1-(1-(4-((5-(4-(aminomethyl)-4-methylpiperidin-1-yl)pyrazin-2-yl)thio)-3-chloropyridin-2-yl)piperidine-4-carbonyl)piperidin-4-yl)oxy)-4-(4-methylthiazol-5-yl)benzyl)-4-hydroxy-1-(3-methyl-2-(4-methyl-1H-pyrazol-1-yl)butanoyl)pyrrolidine-2-carboxamide]
94.2	95.9	CC(=O)N[C@H](C(=O)N1C[C@H](O)C[C@H]1C(=O)NCc1ccc(-c2scnc2C)cc1O[C@H]1CC[C@H](C(=O)N2CC(Nc3nccc(Sc4cnc(N5CCC6(CC5)CO[C@@H](C)[C@H]6N)cn4)c3Cl)C2)CC1)C(C)(C)C [Example 40, (2S,4R)-1-((S)-2-acetamido-3,3-dimethylbutanoyl)-N-(2-(((1R,4S)-4-(3-((4-((5-((3S,4S)-4-amino-3-methyl-2-oxa-8-azaspiro[4.5]decan-8-yl)pyrazin-2-yl)thio)-3-chloropyridin-2-yl)amino)azetidine-1-carbonyl)cyclohexyl)oxy)-4-(4-methylthiazol-5-yl)benzyl)-4-hydroxypyrrolidine-2-carboxamide]
87.9	99.8	Cc1ncsc1-c1ccc(CNC(=O)[C@@H]2C[C@@H](O)CN2C(=O)[C@@H](NC(=O)C2(F)CC2)C(C)(C)C)c(OC2CCN(C(=O)CC3CN(c4nccc(Sc5cnc(N6CCC(C)(CN)CC6)cn5)c4Cl)C3)CC2)c1 [Example 64, (2S,4R)—N-(2-((1-(2-(1-(4-((5-(4-(aminomethyl)-4-methylpiperidin-1-yl)pyrazin-2-yl)thio)-3-chloropyridin-2-yl)azetidin-3-yl)acetyl)piperidin-4-yl)oxy)-4-(4-methylthiazol-5-yl)benzyl)-1-((S)-2-(1-fluorocyclopropane-1-carboxamido)-3,3-dimethylbutanoyl)-4-hydroxypyrrolidine-2-carboxamide]
94.4	98.0	CC(=O)N[C@H](C(=O)N1C[C@H](O)C[C@H]1C(=O)NCc1ccc(-c2scnc2C)cc1OC1CCN(C(=O)C2CCN(c3nccc(Sc4cnc(N5CCC6(CC5)CO[C@@H](C)[C@H]6N)cn4)c3Cl)CC2)CC1)C(C)(C)C [Example 77, (2S,4R)-1-((S)-2-acetamido-3,3-dimethylbutanoyl)-N-(2-((1-(1-(4-((5-((3S,4S)-4-amino-3-methyl-2-oxa-8-azaspiro[4.5]decan-8-yl)pyrazin-2-yl)thio)-3-chloropyridin-2-yl)piperidine-4-carbonyl)piperidin-4-yl)oxy)-4-(4-methylthiazol-5-yl)benzyl)-4-hydroxypyrrolidine-2-carboxamide]
